Data on three compounds can be found in patent publication US4567178A, “Substituted 5,11-dihydro-6H-dibenz[b,e]azepin-6-ones and pharmaceutical compositions containing same” (Dr. Karl Thomae GmbH, priority 1984, dated 1986).

In data set [1] the target is muscarinic receptors (cerebral cortex). Kind of data set: Muscarinic receptor binding (inhibition of specific 3H-N-methylscopolamine binding), cerebral cortex. Also on record: species or system rat (male Sprague-Dawley). The settings on record: rat cerebral cortex homogenate 1:3000, 3H-NMS, 30° C., 45 minutes; read-out: Receptor Binding Tests IC50, Cortex. Here is the method:
(§1) Determination of the IC50 value
(§2) The organ donors were male Sprague-Dawley rats weighing from 180 to 220 gm. After the removal of the stomach and cerebral cortex, all the other steps were carried out in ice-cold HepesHCl buffer (pH 7.4:100 m molar NaCl, 10 m molr MgCl2). Smooth muscle of the fundic section of the stomach was separated from the gastric mucosa and subjected to preliminary homogenization. All the organs were then homogenized in a potter apparatus.
(§3) For the binding test, the homogenized organ preparations were diluted as follows:
The homogenized organ preparations were incubated in an Eppendorf centrifugal tube at 30° C. with a specific concentration of the radioligand and a concentration series of the non-radioactive test substances. The period of incubation was 45 minutes. 0.3N molar ^3 H-N-methylscopolamine (^3 H-NMS) was used as the radioligand. After the incubation had been stopped by centrifuging at 14,000 g, the radioactivity in the pellet was determined. It represents the sum of specific and non-specific binding of ^3 H-NMS. The proportion of non-specific binding was defined as the radioactivity which was bound in the presence of 1μ molar quinuclidinyl benzylate. Four measurements were taken in each case. The IC50 values of the non-labelled test substances were determined graphically. […]

For data set [2], the system named is oxotremorine-induced secretion of saliva. Description: Oxotremorine test: inhibition of oxotremorine-induced salivation. Format: in vivo, rat (Crl:COBS-CD(SD) BR, female albino). The settings on record: Rattus norvegicus, iv, read-out: Oxotremorine Tests: Inhibition of Salivation ED50. The protocol: Oxotremorine, a specific agonist at muscarinic receptors, produces lesions of the gastric mucosa in rats and increases the secretion of saliva. This test model was chosen to be able to determine any selective activity of an antimuscarinic substance on the stomach.
Ten female albino rats (of the Crl:COBS-CD(SD) BR strain) with a body weight of from 120 to 150 gm were used for each treatment group. These rats were given free access to drinking water but were deprived of food for 24 hours before the start of the test.
To determine, in preliminary tests, the muscarinic effect of oxotremorine on each of the symptoms investigated, a dosage-activity curve was plotted with at least three doses for each symptom.
When testing antimuscarinic substances, the oxotremorine dosage used was the dosage which triggered the symptom to be influenced in 90 to 100% of the animals in the preliminary tests.
Secretion of saliva: 0.083 mg/kg i.v.
Each antimuscarinic substance was administered in uniformly graduated dosages by intravenous route 15 minutes before the administration of oxotremorine. Control groups were given the solvent and suspension agent in corresponding amounts instead of the test substance.
The results were expressed as the percentage inhibition of the oxotremorine effect (percentage of the animals without the symptom in question). The ED50 values were determined using the method of LITCHFIELD and WILCOXON (J. Pharmacol. Exp. Ther. 96, 99, 1949).

Data set [3] in a line: Mydriasis (effect on pupil size). The settings on record: rat, in vivo, iv, pupil size observed for ten minutes. The protocol:
The effect of the test substances on the pupil size in rats was investigated as follows:
The substances were administered intravenously to groups of ten animals in at least three uniformly graduated dosages. The pupil size was then observed for ten minutes to see if there were any changes (the occurrence of mydriasis or miosis), and the test was carried out blind, i.e., the investigator was not aware of the preliminary treatment received by the animals. The percentage of test animals in which mydriasis occurred was determined. The ED50 values were again determined according to LITCHFIELD and WILCOXON (see above).

Data set [4] concerns the target T1, muscarinic receptors (smooth muscle from fundus of stomach) (Rattus norvegicus, UniProt P10980).
T1 construct: Smooth muscle of the fundic section of the stomach was separated from the gastric mucosa; from tissue; host or cells: fundic smooth muscle homogenate of the stomach of male Sprague-Dawley rats
T1 sequence (P10980 1-466): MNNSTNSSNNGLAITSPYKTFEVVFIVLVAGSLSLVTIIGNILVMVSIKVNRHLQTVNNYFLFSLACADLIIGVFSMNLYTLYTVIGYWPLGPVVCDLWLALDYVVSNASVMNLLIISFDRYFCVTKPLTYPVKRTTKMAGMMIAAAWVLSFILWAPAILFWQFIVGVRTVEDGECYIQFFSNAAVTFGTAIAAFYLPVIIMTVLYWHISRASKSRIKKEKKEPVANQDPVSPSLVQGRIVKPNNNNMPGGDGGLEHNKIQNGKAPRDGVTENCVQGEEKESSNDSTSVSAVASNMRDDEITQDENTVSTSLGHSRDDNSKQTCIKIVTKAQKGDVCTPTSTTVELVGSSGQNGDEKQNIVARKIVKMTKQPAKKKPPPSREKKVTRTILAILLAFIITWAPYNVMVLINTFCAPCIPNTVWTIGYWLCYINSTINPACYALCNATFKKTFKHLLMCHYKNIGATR
Kind of data set: Muscarinic receptor binding (inhibition of specific 3H-N-methylscopolamine binding), smooth muscle from fundus of stomach. Also on record: species or system rat (male Sprague-Dawley). The protocol:
as §1, §2, §3
Smooth muscle from the funding of the stomach: 1:100.
The homogenized organ preparations were incubated in an Eppendorf centrifugal tube at 30° C. with a specific concentration of the radioligand and a concentration series of the non-radioactive test substances. The period of incubation was 45 minutes. 0.3N molar ^3 H-N-methylscopolamine (^3 H-NMS) was used as the radioligand. After the incubation had been stopped by centrifuging at 14,000 g, the radioactivity in the pellet was determined. It represents the sum of specific and non-specific binding of ^3 H-NMS. The proportion of non-specific binding was defined as the radioactivity which was bound in the presence of 1μ molar quinuclidinyl benzylate. Four measurements were taken in each case. The IC50 values of the non-labelled test substances were determined graphically. They represent the concentration of test substance at which the specific binding of ^3 H-NMS to the muscarinic receptors in the various organs was inhibited by 50%.

What is called IC50 is the concentration that gives 50% inhibition. The term ED50 denotes the dose that gives a 50% effect, or the effect in half of the subjects. Regarding `CN1CCC(NC(=O)C2c3ccccc3NC(=O)c3ccccc32)CC1` (centres unmarked) [A, 5,11-Dihydro-11-[[(1-methyl-4-piperidinyl)-amino]-carbonyl]-6H-dibenz[b,e]azepin-6-one], the IC50 in data set [1] was 40 nM; in data set [4], 700 nM. Further, the ED50 in data set [2] worked out at 0.19 mg/kg. Besides, the ED50 at 10 min in data set [3] amounted to 0.075 mg/kg.
Consider `CN1CCN(CC(=O)C2c3ccccc3NC(=O)c3ccccc32)CC1` (centres unmarked) [C, 5,11-Dihydro-[(4-methyl-1-piperazinyl)-acetyl]-6H-dibenz[b,e]azepin-6-one], for which, in data set [2], the ED50 was 0.335 mg/kg. This compound had a 50% effective dose (ED50) at 10 min in data set [3] of 0.161 mg/kg. Besides, the 50% inhibitory concentration (IC50) in data set [4] was 400 nM.
Regarding `CN1CCC(CC(=O)C2c3ccccc3NC(=O)c3ccccc32)CC1` (centres unmarked) [B, 5,11-Dihydro-11-[(1-methyl-4-piperidinyl)-acetyl]-6H-dibenz[b,e]azepin-6-one], the IC50 in data set [1] was 25 nM; in data set [4] it was 150 nM. Moreover, the ED50 in data set [2] amounted to 0.186 mg/kg. In addition, the 50% effective dose (ED50) at 10 min in data set [3] turned out to be 0.179 mg/kg.
